From patent US7390806B2, “Antibiotics containing borinic acid complexes and methods of use” (Anacor Pharmaceuticals, Inc., priority 2002, dated 2008)
In brackets after ≈: the same amount, converted by molar mass.

Tests used:
[1] = system: S. pneumoniae ATCC 6301; test: MIC determination, S. pneumoniae ATCC 6301; format: cell-based, Streptococcus pneumoniae; conditions: for MIC S. pneumoniae ATCC 6301: Table 1; for MIC: Streptococcus pneumoniae, ATCC6301, Table 1, read-out: MIC S. pneumoniae ATCC 6301
[2] = system: M. catarrhalis ATCC 25238; test: MIC determination, M. catarrhalis ATCC 25238; format: cell-based; conditions: for MIC M. catarrhalis ATCC 25238: Table 1; for MIC: Moraxella catarrhalis, ATCC25238, Table 1, read-out: MIC M. catarrhalis ATCC 25238
[3] = system: E. faecium CT-26; test: MIC determination, E. faecium CT-26; format: cell-based, Enterococcus faecium; conditions: for MIC E. faecium CT-26: Table 1; for MIC: Enterococcus faecium, CT26, Table 1, read-out: MIC E. faecium CT-26
[4] = system: S. epidermidis ATCC 12228; test: MIC determination, S. epidermidis ATCC 12228; format: cell-based, Staphylococcus epidermidis; conditions: for MIC S. epidermidis ATCC 12228: Table 1; for MIC: Staphylococcus epidermidis, ATCC12228, Table 1, read-out: MIC S. epidermidis ATCC 12228
[5] = system: S. aureus ATCC 29213; test: MIC determination, S. aureus ATCC 29213; format: cell-based, Staphylococcus aureus; conditions: for MIC S. aureus ATCC 29213: Table 1
[6] = system: E. faecalis ATCC 29212; test: MIC determination, E. faecalis ATCC 29212; format: cell-based, Enterococcus faecalis; conditions: for MIC E. faecalis ATCC 29212: Table 1; for MIC: Enterococcus faecalis, ATCC29212, Table 1, read-out: MIC E. faecalis ATCC 29212

Row | Molecule | MIC S. pneumoniae ATCC 6301 [1] | MIC M. catarrhalis ATCC 25238 [2] | MIC E. faecium CT-26 [3] | MIC S. epidermidis ATCC 12228 [4] | MIC S. aureus ATCC 29213 [5] | MIC E. faecalis ATCC 29212 [6] | MIC [1] | MIC [2] | MIC [3] | MIC [4] | MIC ([5]; Staphylococcus aureus, ATCC29213, Table 1, read-out: MIC S. aureus ATCC 29213) | MIC [6]
1 | Oc1cccc2cccnc12 [Compound 42, 8-hydroxyquinoline] | 1 micrograms per ml | 1 micrograms per ml | 2 micrograms per ml | 1 micrograms per ml | 1 micrograms per ml | 8 micrograms per ml | – | – | – | – | – | –
2 | Oc1cccc2cccnc12 [Compound 98, 8-hydroxyquinoline] | 1 micrograms per ml | 1 micrograms per ml | 4 micrograms per ml | 1 micrograms per ml | 2 micrograms per ml | 8 micrograms per ml | – | – | – | – | – | –
3 | Oc1cccc2cccnc12 [Compound 68, 8-hydroxyquinoline] | 16 micrograms per ml | 0.12 micrograms per ml | 4 micrograms per ml | 2 micrograms per ml | 2 micrograms per ml | 32 micrograms per ml | – | – | – | – | – | –
4 | Oc1cccc2cccnc12 [Compound 80, 8-hydroxyquinoline] | 2 micrograms per ml | 2 micrograms per ml | 4 micrograms per ml | 1 micrograms per ml | 2 micrograms per ml | 4 micrograms per ml | – | – | – | – | – | –
5 | Oc1cccc2cccnc12 [Compound 59, 8-hydroxyquinoline] | 1 micrograms per ml | 2 micrograms per ml | 4 micrograms per ml | 1 micrograms per ml | 2 micrograms per ml | 8 micrograms per ml | – | – | – | – | – | –
6 | Oc1cccc2cccnc12 [Compound 94, 8-hydroxyquinoline] | 1 micrograms per ml | 2 micrograms per ml | 4 micrograms per ml | 1 micrograms per ml | 2 micrograms per ml | 8 micrograms per ml | – | – | – | – | – | –
7 | N#Cc1ccc(OB(c2cccc(Cl)c2)c2cccc(Cl)c2)c2ncccc12 [Compound 19, Bis(3-Chlorophenyl)borinic acid 5-cyano-8-hydroxyquinoline ester] | 4 micrograms per ml | 0.5 micrograms per ml | 4 micrograms per ml | 2 micrograms per ml | 0.25 micrograms per ml | 16 micrograms per ml | – | – | – | – | – | –
8 | Clc1cccc(B(Oc2cccc3cccnc23)c2cccs2)c1 [Compound 36, (3-Chlorophenyl)(2-thienyl)borinic acid 8-hydroxyquinoline ester] | 2 micrograms per ml | 4 micrograms per ml | 2 micrograms per ml | 1 micrograms per ml | 1 micrograms per ml | 8 micrograms per ml | – | – | – | – | – | –
9 | Oc1cccc2cccnc12 [Compound 77, 8-hydroxyquinoline] | 1 micrograms per ml | 2 micrograms per ml | 4 micrograms per ml | 1 micrograms per ml | 2 micrograms per ml | 8 micrograms per ml | – | – | – | – | – | –
10 | Oc1c(Cl)cc(Cl)c2cccnc12 [Compound 71] | 8 micrograms per ml | 0.12 micrograms per ml | 4 micrograms per ml | 2 micrograms per ml | 2 micrograms per ml | 64 micrograms per ml | – | – | – | – | – | –
11 | Oc1cccc2cccnc12 [Compound 39, 8-hydroxyquinoline] | 1 micrograms per ml | 2 micrograms per ml | 2 micrograms per ml | 1 micrograms per ml | 1 micrograms per ml | 8 micrograms per ml | – | – | – | – | – | –
12 | Cc1ccnc2c(O)cccc12 [Compound 66] | 1 micrograms per ml | 0.5 micrograms per ml | 4 micrograms per ml | 1 micrograms per ml | 2 micrograms per ml | 64 micrograms per ml | – | – | – | – | – | –
13 | Oc1ccc(Cl)c2cccnc12 [Compound 49] | 1 micrograms per ml | 0.25 micrograms per ml | 2 micrograms per ml | 1 micrograms per ml | 2 micrograms per ml | 16 micrograms per ml | – | – | – | – | – | –
14 | Bis(ethynyl)borinic acid 8-Hydroxyquinoline [Compound 44] | 1 micrograms per ml | 0.25 micrograms per ml | 2 micrograms per ml | 1 micrograms per ml | 1 micrograms per ml | 16 micrograms per ml | – | – | – | – | – | –
15 | Oc1cccc2cccnc12 [Compound 18, 8-hydroxyquinoline] | 2 micrograms per ml | 1 micrograms per ml | 4 micrograms per ml | 1 micrograms per ml | 0.25 micrograms per ml | 8 micrograms per ml | – | – | – | – | – | –
16 | Oc1cccc2cccnc12 [Compound 61, 8-hydroxyquinoline] | 1 micrograms per ml | 2 micrograms per ml | 2 micrograms per ml | 1 micrograms per ml | 2 micrograms per ml | 16 micrograms per ml | – | – | – | – | – | –
17 | Oc1cccc2cccnc12 [Compound 74, 8-hydroxyquinoline] | 2 micrograms per ml | 1 micrograms per ml | 2 micrograms per ml | 1 micrograms per ml | 2 micrograms per ml | 32 micrograms per ml | – | – | – | – | – | –
18 | Oc1cccc2cccnc12 [Compound 29, 8-hydroxyquinoline] | 2 micrograms per ml | 0.5 micrograms per ml | 2 micrograms per ml | 1 micrograms per ml | 0.5 micrograms per ml | 8 micrograms per ml | – | – | – | – | – | –
19 | Oc1ccc(F)c2cccnc12 [Compound 58] | 2 micrograms per ml | 0.5 micrograms per ml | 4 micrograms per ml | 2 micrograms per ml | 2 micrograms per ml | 8 micrograms per ml | – | – | – | – | – | –
20 | Oc1cccc2cccnc12 [Compound 95, 8-hydroxyquinoline] | 2 micrograms per ml | 1 micrograms per ml | 2 micrograms per ml | 1 micrograms per ml | 2 micrograms per ml | 8 micrograms per ml | – | – | – | – | – | –
21 | Oc1cccc2cccnc12 [Compound 84, 8-hydroxyquinoline] | 2 micrograms per ml | 4 micrograms per ml | 4 micrograms per ml | 1 micrograms per ml | 2 micrograms per ml | 8 micrograms per ml | – | – | – | – | – | –
22 | Oc1ccc(Cl)c2cccnc12 [Compound 13] | – | – | – | – | 0.125 micrograms per ml | 64 micrograms per ml | 1 µg/mL (≈ 5.57 µM) | 0.25 µg/mL (≈ 1.39 µM) | 2 µg/mL (≈ 11.1 µM) | 1 µg/mL (≈ 5.57 µM) | – | –
23 | Cc1ccnc2c(O)cccc12 [Compound 67] | 1 micrograms per ml | 0.5 micrograms per ml | 4 micrograms per ml | 1 micrograms per ml | 2 micrograms per ml | 64 micrograms per ml | – | – | – | – | – | –
24 | O=[N+]([O-])c1ccc(O)c2ncccc12 [Compound 22] | – | – | – | – | – | – | 2 µg/mL (≈ 10.5 µM) | 0.12 µg/mL (≈ 0.631 µM) | 16 µg/mL (≈ 84.1 µM) | 4 µg/mL (≈ 21 µM) | 0.5 µg/mL (≈ 2.63 µM) | 64 µg/mL (≈ 337 µM)
25 | Oc1cccc2cccnc12 [Compound 20, 8-hydroxyquinoline] | 2 micrograms per ml | 2 micrograms per ml | 4 micrograms per ml | 1 micrograms per ml | 0.25 micrograms per ml | 8 micrograms per ml | – | – | – | – | – | –
26 | Cc1ccnc2c(O)cccc12 [Compound 14] | – | – | – | – | 0.125 micrograms per ml | – | 1 µg/mL (≈ 6.28 µM) | 0.5 µg/mL (≈ 3.14 µM) | 4 µg/mL (≈ 25.1 µM) | 1 µg/mL (≈ 6.28 µM) | – | 64 µg/mL (≈ 402 µM)
